US11839601B2, “Cannabis-enriched enzymatically treated therapeutic composition” (priority 2016, dated 2023)

Experiment: Storage of honey / cannabis extract blends at room temperature, cannabinoid content after storage (conversion)
Type: physicochemical
Description: Cannabis plants of various strains were extracted using ethanol at ethanol to plant material weight/weight ratio of 8 to 1 for 30 minutes. Ethanol was removed from the extracts by evaporation under reduced pressure and the desolventized extracts were treated at 120° C. to reach complete decarboxylation. The cannabinoids content in each of the formed extracts was analyzed using HPLC.
Pure honey samples were blended with water and with the cannabis extracts to form what looked to the eye as homogeneous blends. Comparative blends were prepared by blending honey samples with extracts, but with no water addition. Cannabinoids concentrations in the blends were calculated, using the extracts compositions and the dilution by honey and water.
The blends were stored at room temperature for different durations. Then samples were taken and analyzed for cannabinoids content.

[1] = blend of 30 gr honey + 10 gr water + extract, 11 days
[2] = blend of 30 gr honey + 10 gr water + extract, glucose 64 %, 11 days, initial (calculated) THC 752 ppm, CBD 749 ppm
[3] = comparative blend of 30 gr honey + extract, no water, glucose 85 %, 18 days, initial (calculated) CBD 1150 ppm, THC 1050 ppm

| Compound | Conversion [1] | Concentrations after storage [2] | Concentrations after storage [3] | Conversion of THC compared with CBD (water-diluted honey blends, 11 days) |
| --- | --- | --- | --- | --- |
| C=C(C)[C@@H]1CCC(C)=C[C@H]1c1c(O)cc(CCCCC)cc1O [CBD, cannabidiol] | 27 | 547 | 1148 |  |
| CCCCCc1cc(O)c2c(c1)OC(C)(C)[C@@H]1CCC(C)=C[C@@H]21 [THC, tetrahydrocannabinol] | 45 | 414 | 1047 | greater than that of CBD |
